Data as given in PMC7038240 (Antimicrobial Agents and Chemotherapy, 2020).
Like-named read-outs stand apart in the source and are kept apart here.

Assays:
[1] = system: E. coli DH5α producing individual β-lactamases; assay: Broth microdilution MIC in engineered strains (BLI fixed at 4 μg/ml); format: cell-based, Escherichia coli
Method: The spectrum of antibacterial activity of cefepime-taniborbactam and the breadth of inhibitory activity of this next-generation cyclic boronate BLI were assessed in 34 engineered E. coli strains each overproducing an individual β-lactamase and directly compared to those of the clinically approved agent ceftazidime-avibactam. In this manner, the antibacterial activity of the BL-BLI combinations relative to that of the partnered cephalosporins alone provided a quantitative measure of β-lactam potentiation that directly reflects the levels of inhibition of β-lactamase function achieved by addition of BLI. The BLI concentration was fixed at 4 μg/ml, as described in Materials and Methods.
The isogenic strains were used to establish a spectrum of inhibitory activity against 34 β-lactamases that were engineered into E. coli DH5α cells carrying chromosomal AmpC (ESC-1), a non-ESBL enzyme unable to hydrolyze these third- or fourth-generation cephalosporins. […]. The DNA fragments containing the promoter, the signal sequence, and each β-lactamase-coding gene were synthesized and cloned into pTwist Chlor High Copy in DH5α at Twist Bioscience. The individual expression plasmids along with their GenBank accession numbers are listed in Table S2 in the supplemental material and below. The protein sequences of β-lactamases were obtained from the Beta-Lactamase DataBase (www.bldb.eu) ([47]). Expression of the β-lactamases was confirmed by verifying decreased susceptibility to example test antibiotics that are known substrates of the enzymes. E. coli DH5α carrying pTU501, which expressed only the TEM-1 signal sequence from the bla promoter, was used as a control. The plasmid sequences are available through GenBank (Table S2).
The in vitro antibacterial activity of the β-lactams alone or in combination with the BLIs was determined in cation-adjusted Mueller-Hinton broth (CAMHB) microdilution assays according to CLSI recommendations ([51]). […]. The inocula for the broth microdilution assays were prepared by the broth culture method ([51]). […]

[2] = system: Enterobacterales clinical isolates; assay: MIC distributions in panels of clinical isolates (MIC50, MIC90, % susceptible); format: cell-based
Method: (§1) The antibacterial activity of the cephalosporins alone was included to ascertain the level of potentiation by the partnered BLI. BLIs were tested at a fixed concentration of 4 μg/ml in all combinations except cefepime-tazobactam, where tazobactam was fixed at a concentration of 8 μg/ml ([38]).
(§2) The in vitro antibacterial activity of the β-lactams alone or in combination with the BLIs was determined in cation-adjusted Mueller-Hinton broth (CAMHB) microdilution assays according to CLSI recommendations ([51]). […] The inocula for the broth microdilution assays were prepared by the broth culture method ([51]).

[3] = system: E. cloacae; assay: microbe, parasite or virus in culture; format: cell-based
Method: as §1, §2

[4] = system: P. aeruginosa clinical isolates; assay: microbe, parasite or virus in culture; format: cell-based, Pseudomonas aeruginosa
Method: as §1, §2

[5] = system: cefepime-nonsusceptible Enterobacterales isolates; parameters: method as in earlier work; details: taniborbactam fixed at 4 μg/ml in combination; cited from earlier work
[6] = Escherichia coli, ACT-17 (class C)
[7] = Escherichia coli, ACT-C189 (P99 AmpC) (class C)
[8] = Escherichia coli, CMY-2 (class C)
[9] = Escherichia coli, CTX-M-2 (class A)
[10] = Escherichia coli, CTX-M-15 (class A)
[11] = Escherichia coli, GES-5 (class A)
[12] = Escherichia coli, GIM-1 (class B)
[13] = Escherichia coli, IMP-1 (class B)
[14] = Escherichia coli, KPC-2 (class A)
[15] = Escherichia coli, KPC-3(A177E/D179Y) (class A)
[16] = Escherichia coli, KPC-3(D179Y) (class A)
[17] = Escherichia coli, KPC-3(D179Y/T243M) (class A)
[18] = Escherichia coli, KPC-3(T243A) (class A)
[19] = Escherichia coli, KPC-3(V240G) (class A)
[20] = Escherichia coli, KPC-3 (class A)
[21] = Escherichia coli, NDM-1 (class B)
[22] = Escherichia coli, NDM-5 (class B)
[23] = Escherichia coli, NDM-7 (class B)
[24] = Escherichia coli, OXA-48 (class D)
[25] = Escherichia coli, OXA-162 (class D)
[26] = Escherichia coli, OXA-163 (class D)
[27] = Escherichia coli, OXA-181 (class D)
[28] = Escherichia coli, OXA-232 (class D)
[29] = Escherichia coli, PER-1 (class A)
[30] = Escherichia coli, PER-2 (class A)
[31] = Escherichia coli, SHV-5 (class A)
[32] = Escherichia coli, SPM-1 (class B)
[33] = Escherichia coli, TEM-10 (class A)
[34] = Escherichia coli, TEM-24 (class A)
[35] = Escherichia coli, TEM-72 (class A)
[36] = Escherichia coli, VEB-9 (class A)
[37] = Escherichia coli, VIM-1 (class B)
[38] = Escherichia coli, VIM-2 (class B)
[39] = Escherichia coli, VIM-4 (class B)
[40] = Escherichia coli, Vector control
[41] = Enterobacter cloacae, strain 20, p99 AmpC/CTX-M-27/SHV-12/ACT-2/TEM-135, read-out: MIC
[42] = Enterobacter cloacae, strain 116723, p99 AmpC/TEM-1/CTX-M-3, read-out: MIC
[43] = Enterobacter cloacae, strain 138212, p99 AmpC/SHV-71/TEM-1, read-out: MIC
[44] = Enterobacter cloacae, strain 874381, CTX-M-15, read-out: MIC
[45] = Enterobacter cloacae, strain 875134, TEM-1/CTX-M-3/DHA-1, read-out: MIC
[46] = Enterobacter cloacae, strain 891849, TEM-1, read-out: MIC
[47] = Enterobacter cloacae, strain 920937, VIM-1, read-out: MIC
[48] = Enterobacter cloacae, strain 937223, SHV-12/CTX-M-9/ACT-7, read-out: MIC
[49] = Enterobacter cloacae, strain 938772, TEM-OSBL/CTX-M-15/ACT-30, read-out: MIC
[50] = Enterobacter cloacae, strain 976004, OXA-48, read-out: MIC
[51] = Enterobacter cloacae, strain 1249072, TEM-OSBL(b)/VIM-1, read-out: MIC
[52] = Enterobacter cloacae, strain 1365477, TEM-OSBL(b)/VIM-1, read-out: MIC
[53] = Wild-type, basal level Class C and OprD downregulation with RND efflux upregulation (n=14)

CC(C)(O/N=C(\C(=O)N[C@@H]1C(=O)N2C(C(=O)[O-])=C(C[n+]3ccccc3)CS[C@H]12)c1csc(N)n1)C(=O)O [CAZ]
≥ 256 µg/mL: MIC [3, 41] | MIC [3, 44] | MIC [3, 47] | MIC [3, 48] | MIC [3, 51] | MIC [3, 52]
64 µg/mL: MIC [1, 11] | MIC [1, 14] | MIC [3] | MIC [3, 45]
128 µg/mL: MIC [1, 10] | MIC [1, 38] | MIC [3, 42] | MIC [3, 43] | MIC [3, 46] | MIC [3, 49] | MIC [3, 50]
9.1%: % Susceptible isolates ([2]; Mixed Class A and C (n = 22))
15%: % Susceptible isolates ([2]; ESBL (n = 20)) | % Susceptible isolates ([2]; OXA-48/48-like (n = 20))
8 µg/mL: MIC [1, 6]
0%: % Susceptible isolates ([2]; KPC (n = 20)) | % Susceptible isolates ([2]; MBL (n = 20)) | % Susceptible isolates [4] | % Susceptible isolates ([4]; PDC variants (n = 10))
35.7%: % Susceptible isolates [4, 53]
> 128 µg/mL: MIC [1, 12]
512 µg/mL: MIC [1, 8] | MIC [1, 20]
1 µg/mL: MIC [1, 24] | MIC [1, 27] | MIC [1, 28]
256 µg/mL: MIC [1, 7] | MIC [1, 18] | MIC [1, 26] | MIC [1, 39]
0.5 µg/mL: MIC ([1]; Vector control)
0.25 µg/mL: MIC [1, 40]
> 1020 µg/mL: MIC [1, 22] | MIC [1, 23]
32 µg/mL: MIC [1, 9]
1020 µg/mL: MIC [1, 13] | MIC [1, 15] | MIC [1, 16] | MIC [1, 17] | MIC [1, 19] | MIC [1, 21] | MIC [1, 29] | MIC [1, 30] | MIC [1, 31] | MIC [1, 32] | MIC [1, 33] | MIC [1, 34] | MIC [1, 35] | MIC [1, 36] | MIC [1, 37]
2 µg/mL: MIC [1, 25]

CO/N=C(\C(=O)N[C@@H]1C(=O)N2C(C(=O)[O-])=C(C[N+]3(C)CCCC3)CS[C@H]12)c1csc(N)n1 [FEP]
8 µg/mL: MIC [1, 7] | MIC [1, 25] | MIC [1, 33]
0.12 µg/mL: MIC [1, 40]
4 µg/mL: MIC [1, 6] | MIC [1, 11] | MIC [1, 12]
128 µg/mL: MIC [1, 9] | MIC [1, 10] | MIC [1, 20] | MIC [1, 26] | MIC [1, 31] | MIC [1, 32] | MIC [1, 36] | MIC [1, 37]
16 µg/mL: MIC [1, 15] | MIC [1, 17] | MIC [1, 38]
512 µg/mL: MIC [1, 22] | MIC [1, 23] | MIC [1, 29]
256 µg/mL: MIC [1, 19] | MIC [1, 21] | MIC [1, 30]
64 µg/mL: MIC [1, 13] | MIC [1, 14] | MIC [1, 18]
2 µg/mL: MIC [1, 8] | MIC [1, 24] | MIC [1, 27] | MIC [1, 28] | MIC [1, 34]
> 128 µg/mL: MIC90 [5]
32 µg/mL: MIC [1, 16] | MIC [1, 35] | MIC [1, 39]

Cn1c(N)c(NC(=O)NCCN)c[n+]1CC1=C(C(=O)O)N2C(=O)[C@@H](NC(=O)/C(=N\OC(C)(C)C(=O)[O-])c3nsc(N)n3)[C@H]2SC1 [TOL]
85.7%: % Susceptible isolates [4, 53]
5%: % Susceptible isolates ([2]; OXA-48/48-like (n = 20))
0%: % Susceptible isolates ([2]; ESBL (n = 20)) | % Susceptible isolates ([2]; KPC (n = 20)) | % Susceptible isolates ([2]; MBL (n = 20)) | % Susceptible isolates ([2]; Mixed Class A and C (n = 22)) | % Susceptible isolates ([4]; GES/KPC/VIM carbapenemase producing (n = 17)) | % Susceptible isolates ([4]; PDC variants (n = 10))
64 µg/mL: MIC [3, 45]
128 µg/mL: MIC [3, 49] | MIC ([3]; Enterobacter cloacae, strain CDC-0053, KPC-3/TEM-1, read-out: MIC) | MIC ([3]; Enterobacter cloacae, strain CDC-0163, KPC/CTX-M-1/ACT/MIR, read-out: MIC)
32 µg/mL: MIC [3, 41] | MIC [3, 42] | MIC [3, 43] | MIC [3, 46] | MIC [3, 48]
≥ 256 µg/mL: MIC ([3]; Enterobacter cloacae, strain 847426, KPC, read-out: MIC) | MIC [3, 44] | MIC [3, 47] | MIC [3, 50] | MIC [3, 51] | MIC [3, 52]
